Test results: PMC9482650, “Quantitative fragmentomics allow affinity mapping of interactomes” (Nature Communications, 2022)
Read-outs that look alike come from different tables or passages of the source. Ends that are not written are not given here.

Legend:
Test in all cases: Holdup assay
Format in all cases: binding
SNX27 PDZ = SNX27 PDZ (Homo sapiens, UniProt Q96L92)
SCRIB_1 PDZ = SCRIB_1 PDZ (Homo sapiens, UniProt Q14160)
DLG1_2 PDZ = DLG1_2 PDZ (Homo sapiens, UniProt Q12959)
DLG1_1 PDZ = DLG1_1 PDZ (Homo sapiens, UniProt Q12959); details: PBM motif of the named protein vs DLG1_1 PDZ; read-out: pKd values – domain-motif, DLG1_1 (converted)
TX1BP3 PDZ = biological target: T1, TX1BP3 PDZ (Homo sapiens, UniProt O14907)
T1 sequence (O14907 15-112 limits assumed): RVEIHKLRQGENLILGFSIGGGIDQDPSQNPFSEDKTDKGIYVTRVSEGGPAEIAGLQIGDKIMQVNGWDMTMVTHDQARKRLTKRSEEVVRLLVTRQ

SCRIB2 PDZ = biological target: T2, SCRIB2 PDZ (Homo sapiens, UniProt Q14160)
T2 sequence (Q14160 862-950 limits assumed): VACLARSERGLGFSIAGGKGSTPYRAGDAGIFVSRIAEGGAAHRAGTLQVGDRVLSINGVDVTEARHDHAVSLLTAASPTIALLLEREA

[1] = PBM motif of the named protein vs SCRIB_1 PDZ, read-out: pKd values – domain-motif, SCRIB_1 (converted)
[2] = PBM motif of the named protein vs DLG1_2 PDZ, read-out: pKd values – domain-motif, DLG1_2 (converted)
[3] = PBM motif of the named protein vs TX1BP3 PDZ, read-out: pKd values – domain-motif, TX1BP3 (converted)
[4] = holdup affinity of the PBM peptide of the named protein, sheet PBMcomplexome, lower sub-table
[5] = PBM motif of the named protein vs SCRIB_2 PDZ, read-out: pKd values – domain-motif, SCRIB_2 (converted)

SCRIB_1 PDZ, sequence (Q14160 728-815 limits assumed): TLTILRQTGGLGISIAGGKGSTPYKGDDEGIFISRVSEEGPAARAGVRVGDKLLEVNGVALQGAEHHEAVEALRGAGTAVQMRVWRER

| Sequence | Kd (SNX27 PDZ) [µM] | Kd (SCRIB_1 PDZ; [1]) [µM] | Kd (DLG1_2 PDZ; [2]) [µM] | Kd (DLG1_1 PDZ) [µM] | Kd (TX1BP3 PDZ; [3]) [µM] | Kd (SCRIB2 PDZ; holdup affinity of the PBM peptide of the named protein, sheet PBMcomplexome, lower sub-table, 3.5 appears to be the floor for no detectable binding, read-out: affinity of PBM to SCRIB_2 (pKd) (converted)) [µM] | Kd (SNX27 PDZ; [4]) [µM] | Kd (SCRIB_1 PDZ; holdup affinity of the PBM peptide of the named protein, sheet PBMcomplexome, lower sub-table, 3.5 appears to be the floor for no detectable binding, read-out: affinity of PBM to SCRIB_1 (pKd) (converted)) [µM] | Kd (DLG1_2 PDZ; holdup affinity of the PBM peptide of the named protein, sheet PBMcomplexome, lower sub-table, 3.5 appears to be the floor for no detectable binding, read-out: affinity of PBM to DLG1_2 (pKd) (converted)) [µM] | Kd (TX1BP3 PDZ; holdup affinity of the PBM peptide of the named protein, sheet PBMcomplexome, lower sub-table, 3.5 appears to be the floor for no detectable binding, read-out: affinity of PBM to TX1BP3 (pKd) (converted)) [µM] | Kd (SCRIB2 PDZ; [5]) [µM] |
| --- | --- | --- | --- | --- | --- | --- | --- | --- | --- | --- | --- |
| LCALPKVTTV [AGMAT] | 37.2 | 40.7 | 1.35 | 10.7 | 85.1 | – | – | – | – | – | – |
| PELESKESVL [SLC1A4] | 3.72 | 66.1 | 91.2 | 309 | 79.4 | – | – | – | – | – | – |
| LESTTVGTSV [KARS1] | 35.5 | 155 | 45.7 | 53.7 | 251 | – | – | – | – | – | 34.7 |
| KQVVPFSSSV [GDA] | 295 | 309 | 41.7 | 129 | 49 | – | – | – | – | – | – |

Now from value to sequence:

| Kd (SNX27 PDZ) [µM] | Kd (SCRIB_1 PDZ; [1]) [µM] | Kd (DLG1_2 PDZ; [2]) [µM] | Kd (DLG1_1 PDZ) [µM] | Kd (TX1BP3 PDZ; [3]) [µM] | Kd (SCRIB2 PDZ; holdup affinity of the PBM peptide of the named protein, sheet PBMcomplexome, lower sub-table, 3.5 appears to be the floor for no detectable binding, read-out: affinity of PBM to SCRIB_2 (pKd) (converted)) [µM] | Kd (SNX27 PDZ; [4]) [µM] | Kd (SCRIB_1 PDZ; holdup affinity of the PBM peptide of the named protein, sheet PBMcomplexome, lower sub-table, 3.5 appears to be the floor for no detectable binding, read-out: affinity of PBM to SCRIB_1 (pKd) (converted)) [µM] | Kd (DLG1_2 PDZ; holdup affinity of the PBM peptide of the named protein, sheet PBMcomplexome, lower sub-table, 3.5 appears to be the floor for no detectable binding, read-out: affinity of PBM to DLG1_2 (pKd) (converted)) [µM] | Kd (TX1BP3 PDZ; holdup affinity of the PBM peptide of the named protein, sheet PBMcomplexome, lower sub-table, 3.5 appears to be the floor for no detectable binding, read-out: affinity of PBM to TX1BP3 (pKd) (converted)) [µM] | Kd (SCRIB2 PDZ; [5]) [µM] | Sequence |
| --- | --- | --- | --- | --- | --- | --- | --- | --- | --- | --- | --- |
| – | – | – | – | – | 166 | 229 | 174 | 245 | 40.7 | – | GYDWGPATDL [TJP3/ZO3] |
| 3.09 | 6.31 | 11 | 20.4 | 1.91 | – | – | – | – | – | 13.2 | PKRSFIESNV [TANC1] |
| – | – | – | – | – | – | 309 | – | – | – | – | IKAIVDLTGL [TRAF2] |
